# Measurements published in paper PMC9283466, “In silico identification of two peptides with antibacterial activity against multidrug-resistant Staphylococcus aureus” (NPJ Biofilms and Microbiomes, 2022).
# Bridge positions count the residues as written; N and C are the ends. Peptide text beside a SMILES is read from it.
# Columns and labels:
# [1] = test system: A. baumannii (IMI, MER resistant; strain ID not given); assay: microbe, parasite or virus in culture; type: cell-based, Acinetobacter baumannii; details: MER resistant, no strain ID printed
# Protocol: (§1) To determine the antimicrobial activity of the new antimicrobial peptides, HG2 and HG4, their minimum inhibitory concentrations (MICs) were determined by broth microdilution method[51] in cation adjusted Mueller Hinton broth (MHB) following the International Organisation for Standardisation (ISO) 20776-1 standard for MIC testing using a final bacterial inoculum of 5 × 10^5 CFU/ml[52]. […] The peptides dissolved in sterile distilled water were added to bacteria culture and incubated overnight at appropriate conditions. The MICs of the peptides and comparator antibiotics were recorded after 18–24 h. The minimum bactericidal concentrations (MBCs) were also determined and were taken as the lowest concentration of the antimicrobial that prevented the growth of bacterial cells after the subculture of cells (from MIC treatment) onto antibiotic-free media.
# A. baumannii 515722 = assay: microbe, parasite or virus in culture; type: cell-based, Acinetobacter baumannii; details: 515722
# Protocol: as §1
# A. baumannii 515785 = assay: microbe, parasite or virus in culture; type: cell-based, Acinetobacter baumannii; details: 515785
# Protocol: as §1
# A. baumannii 515908 = assay: microbe, parasite or virus in culture; type: cell-based, Acinetobacter baumannii; details: 515908
# Protocol: as §1
# MRSA USA300 cells [2] = assay: Time-kill kinetics; type: cell-based, Staphylococcus aureus; details: 3x MIC; for reduction in viable cells (time-kill): within the first 10 min, logarithmic-phase MRSA USA300; for time to complete cell death: no recovery observed after 24 h
# Protocol: The bactericidal activity of HG2, HG4 and comparator antimicrobial compounds was assessed using exponential-phase cultures[14] of MRSA USA300 grown in MHB (1 × 10^6-8 CFU/ml). […] Samples were taken at different time points, serially diluted and inoculated onto MH agar plates using the spread plate technique. After overnight incubation, the colony-forming units per millilitre of cell culture (CFU/ml) was calculated. Experiments were performed in quadruplicates.
# MRSA USA300 cells [3] = assay: ATP depletion assay; type: cell-based, Staphylococcus aureus; details: P = 0.018 (HG2) and 0.003 (HG4)
# Protocol: Adenosine triphosphate (ATP) drives many cellular and metabolic processes and can be used to ascertain the integrity of cells. […] Briefly, in a clear 96-well plate, samples and ATP standard provided with the kit were added in a reaction mix containing ATP assay buffer, ATP Probe and Converter and Developer mix. The reaction mix was incubated in the dark at room temperature for 30 min. Absorbance (570 nm0 was then measured in a microplate spectrophotometer. The background ATP levels obtained from samples and ATP standards were autocorrected by subtracting ATP levels from blank treatments. The amount of ATP in unknown samples was determined from the ATP standard curve and calculated using the formula in the instruction manual. All measurements were performed in triplicates.
# MRSA USA300 cells [4] = assay: Transmission electron microscopy; type: cell-based, Staphylococcus aureus; details: 3x MICs for 60 min
# From the text: Transmission electron microscopy[14] was used to investigate the effects of HG2 and HG4 on MRSA USA300 cell morphology. […] They were then stained with 2% (w/v) uranyl acetate and Reynold’s lead citrate after which they were observed using a JEM1010 transmission electron microscope (JEOL Ltd, Tokyo, Japan) at 80 kV.
# [5] = test system: BEAS-2B (normal airway epithelial cells); assay: Cytotoxicity, resazurin cell viability; type: cell-based, human; details: 48 h
# Protocol: (§2) The toxicity of HG2 and HG4 was tested by a well-known method[60] using the following cell types: BEAS-2B (normal airway epithelial cells, ATCC CRL-9609), IMR-90 (normal fibroblasts, ATCC CCL-186) and HepG2 (liver cell line, ATCC HB-8065). BEAS-2B, IMR-90 and HepG2 cells were cultured in Dulbecco’s modified essential medium (DMEM) supplemented with 10% fetal calf serum (FCS), 1% L-glutamine and 1% antibiotics (all from Invitrogen). Cells were routinely grown onto 25 cm^2 flasks maintained in a 5% CO2 incubator at 37 °C. Briefly, cells grown on 25 cm^2 flasks were detached using trypsin-EDTA solution (Thermofisher) and seeded into 96-well cell culture plates (Greiner Bio-one) at ~10^4 cells per well (counted using Mallasez’s chamber). The cells were grown at 37 °C in a 5% CO2 incubator until they reached confluence (~48–72 h of seeding). Wells were then aspirated and increasing concentrations of HG2 or HG4 were added to the cells and incubated for a further 48 h at 37 °C in a 5% CO2 incubator. The wells were then emptied, and cell viability was evaluated using a resazurin based in vitro toxicity assay kit (Sigma-Aldrich) following the manufacturer’s instructions. Briefly, the resazurin stock solution was diluted at 1:100 in sterile PBS containing calcium and magnesium (PBS^++, pH 7.4) and emptied wells were filled with 100 µl of the diluted resazurin solution. After 4 h incubation at 37 °C with the peptide-treated cells, fluorescence intensity was measured using a microplate reader (excitation wavelength of 530 nm/emission wavelength of 590 nm). The fluorescence values were normalised by the controls and expressed as the percentage of cell viability. The IC50 values of HG2 or HG4 on cell viability (i.e. the concentration of peptides causing a reduction of 50% of the cell viability) were calculated using GraphPad® Prism 7 software.
# HepG2 (liver cell line) = assay: Cytotoxicity, resazurin cell viability; type: cell-based, human; details: 48 h
# Protocol: as §2
# [6] = test system: IMR-90 (normal fibroblasts); assay: Cytotoxicity, resazurin cell viability; type: cell-based, human; details: 48 h
# Protocol: as §2
# [7] = test system: MRSA USA300 infection in G. mellonella; assay: In vivo efficacy, G. mellonella MRSA USA300 infection model; parameters: species or system Galleria mellonella; details: MRSA USA300 LD; for survival rate higher than the control group: peptides at 1x MIC; for increase in survival versus untreated control group / survival rate: peptides at 3x MIC
# Protocol: All procedures of larvae rearing, injection and G. mellonella killing assays were conducted using validated methods. In each assay, ten larvae weighing between 280–300 mg each were randomly selected. Larvae with the previous melanisation of the cuticle were excluded from the experiments. All experiments were designed in at least four experimental and biological replicates.
# To determine the LD50 and LD of S. aureus MRSA USA300 in G. mellonella, an inoculum of 10 µl of MRSA USA300 suspension in PBS 1X (10^3 to 10^6 CFU/larvae) was injected into the larvae haemocoel using insulin syringes (Becton Dickinson, USA). Larvae inoculated with PBS and larvae not inoculated were used as negative controls.
# The efficacy of the peptides HG2 and HG4 to control MRSA USA300 infection in vivo, was evaluated following the protocol by ref. [43]. The groups of G. mellonella larvae were infected with the predetermined lethal dose of MRSA USA300. After 30 min of the larvae injection with the bacteria, the peptides were injected at 1x MIC and 3x MIC concentrations respectively. Larvae injected with PBS solution, and HG2 or HG4 peptide solution (1x MIC or 3x MIC) alone were used as negative controls. Injected larvae were maintained at 37 °C in the dark and their survival was monitored and analyzed as above.
SMILES,MIC [1] [µg/mL],MIC (A. baumannii 515722) [µg/mL],MIC (A. baumannii 515785) [µg/mL],MIC (A. baumannii 515908) [µg/mL],reduction in viable cells (time-kill) (MRSA USA300 cells [2]) [log10 CFU/ml],time to complete cell death (MRSA USA300 cells [2]) [min],effect on ATP concentration (MRSA USA300 cells [3]),cell morphology by TEM (MRSA USA300 cells [4]),IC50 (cell viability) [5] [µg/mL],IC50 (cell viability) (HepG2 (liver cell line)) [µg/mL],IC50 (cell viability) [6] [µg/mL],survival rate higher than the control group [7],increase in survival versus untreated control group [7] [fold],survival rate [7] [%]
CC[C@H](C)[C@H](NC(=O)[C@H](CC(C)C)NC(=O)[C@H](CC(C)C)NC(=O)[C@H](CC(C)C)NC(=O)[C@H](CCCCN)NC(=O)[C@H](CCCCN)NC(=O)[C@@H](N)CCSC)C(=O)N[C@@H](CC(C)C)C(=O)N[C@@H](Cc1ccccc1)C(=O)N[C@H]1CSSC[C@@H](C(=O)N[C@@H](CCCCN)C(=O)N[C@@H](CCCCN)C(=O)N[C@@H](C)C(=O)N2CCC[C@H]2C(N)=O)NC(=O)CNC(=O)[C@H](C)NC(=O)[C@H](CC(C)C)NC(=O)[C@H](C)NC(=O)[C@H](CC(C)C)NC(=O)[C@H](C)NC(=O)[C@H](CC(C)C)NC1=O [HG2] (H-MKKLLLILFCLALALAGCKKAP-NH2; disulfide 10-18; N-terminus assumed),128,16,256,32,> 3,≤ 10,decrease in ATP concentration,changes in cell morphology and some cytoplasmic damage,120 ± 25,359 ± 76,96 ± 21,~ 20%,4.6,78
CC[C@H](C)[C@H](NC(=O)[C@H](CC(C)C)NC(=O)[C@H](CC(C)C)NC(=O)[C@H](C)NC(=O)CNC(=O)CNC(=O)[C@@H](NC(=O)[C@@H](NC(=O)[C@H](CC(C)C)NC(=O)[C@H](C)NC(=O)[C@H](CC(C)C)NC(=O)CNC(=O)[C@H](CC(C)C)NC(=O)[C@@H](N)C(C)C)[C@@H](C)CC)C(C)C)C(=O)N[C@@H](CCCCN)C(=O)N[C@@H](CCCCN)C(=O)N[C@@H](CCCCN)C(=O)N[C@@H](CCC(N)=O)C(=O)N[C@@H](C)C(=O)N[C@@H](CCCCN)C(=O)N[C@@H](CO)C(N)=O [HG4] (H-VLGLALIVGGALLIKKKQAKS-NH2; N-terminus and C-terminus assumed),64,32,128,64,> 6,≤ 10,decrease in ATP concentration,changes in cell morphology and some cytoplasmic damage,> 1000,> 1000,294 ± 42,~ 20%,4.4,75
